What was measured:
Assay in all cases: relative viability (nuclei count vs DMSO), 5 days (fraction); higher = more cells survive
Temozolomide + Alpelisib = compound: Cn1nnc2c(C(N)=O)ncn2c1=O [Temozolomide] + Cc1nc(NC(=O)N2CCC[C@H]2C(N)=O)sc1-c1ccnc(C(C)(C)C(F)(F)F)c1 [Alpelisib] (partner 2 µM)
Procedure, shortened: (§1)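 After 5 days of treatment, lung cancer cells in 1536-well plates were fixed and stained in a single step (final 0.05% Triton X-100, 1% formaldehyde, 1 ug/ml Hoechst) and their nuclei counted on 4× images. Treatment had been applied by pin tool the day after seeding as one drug alone or as a fixed anchor-drug dose with five library-drug doses (not always all listed) in √10 steps. Relative viability is the nuclei count of treated wells divided by that of vehicle wells, and values are medians of duplicate plates.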

AZD5582 + Dasatinib = compound: C[C@@H](C(=O)N[C@@H](C1CCCCC1)C(=O)N2CCC[C@H]2C(=O)N[C@@H]3[C@@H](CC4=CC=CC=C34)OCC#CC#CCO[C@@H]5CC6=CC=CC=C6[C@@H]5NC(=O)[C@@H]7CCCN7C(=O)[C@H](C8CCCCC8)NC(=O)[C@H](C)NC)NC [AZD5582] + Cc1nc(Nc2ncc(C(=O)Nc3c(C)cccc3Cl)s2)cc(N2CCN(CCO)CC2)n1 [Dasatinib] (partner 0.075 µM)
Procedure, shortened: as §1

Temozolomide + OSI-027 = compound: Cn1nnc2c(C(N)=O)ncn2c1=O [Temozolomide] + COc1cccc2cc(-c3nc([C@H]4CC[C@H](C(=O)O)CC4)n4ncnc(N)c34)[nH]c12 [OSI-027] (partner 0.5 µM)
Procedure, shortened: as §1

[1] = compound: Cn1nnc2c(C(N)=O)ncn2c1=O [Temozolomide] + O=C(CCCCCCC(=O)Nc1ccccc1)NO [Vorinostat] (partner 1 µM)
Procedure, shortened: as §1

Cell Line | relative viability (Temozolomide + Alpelisib; first compound 0.2 µM) | relative viability (Temozolomide + Alpelisib; first compound 0.6325 µM) | relative viability (Temozolomide + Alpelisib; first compound 2 µM) | relative viability (Temozolomide + Alpelisib; first compound 6.325 µM) | relative viability (Temozolomide + Alpelisib; first compound 20 µM) | relative viability (AZD5582 + Dasatinib; first compound 0.001581 µM) | relative viability (AZD5582 + Dasatinib; first compound 0.005 µM) | relative viability (AZD5582 + Dasatinib; first compound 0.01581 µM) | relative viability (AZD5582 + Dasatinib; first compound 0.05 µM) | relative viability (Temozolomide + OSI-027; first compound 0.2 µM) | relative viability (Temozolomide + OSI-027; first compound 0.6325 µM) | relative viability (Temozolomide + OSI-027; first compound 2 µM) | relative viability (Temozolomide + OSI-027; first compound 6.325 µM) | relative viability (Temozolomide + OSI-027; first compound 20 µM) | relative viability ([1]; first compound 0.2 µM) | relative viability ([1]; first compound 0.6325 µM) | relative viability ([1]; first compound 2 µM) | relative viability ([1]; first compound 6.325 µM) | relative viability ([1]; first compound 20 µM)
NCI-H23 | 0.645 | 0.73 | 0.552 | 0.764 | 0.734 | 0.605 | 0.644 | 0.539 | 0.269 | 0.547 | 0.682 | 0.565 | 0.59 | 0.461 | 0.79 | 0.727 | 0.716 | 0.595 | 0.541
NCI-H596 | 0.582 | 0.494 | 0.567 | 0.48 | 0.482 |  |  | 0.617 | 0.233 | 0.835 | 0.76 | 0.692 | 0.691 | 0.835 | 0.683 | 0.652 | 0.58 | 0.585 | 0.689
LU99A | 0.619 | 0.49 | 0.5 | 0.489 | 0.56 | 0.443 | 0.608 | 0.537 | 0.483 | 0.27 | 0.317 | 0.321 | 0.283 | 0.306 | 0.501 | 0.548 | 0.419 | 0.388 | 0.551
LCLC-97TM1 | 0.253 | 0.236 | 0.28 | 0.246 | 0.249 | 0.748 | 0.91 | 0.768 | 0.825 | 0.554 | 0.525 | 0.571 | 0.486 | 0.524 | 0.98 | 0.763 | 0.659 | 0.514 | 0.628
LCLC-103H | 0.819 | 0.976 | 1.09 | 0.999 | 0.927 | 0.411 | 0.475 | 0.403 | 0.152 | 0.454 | 0.416 | 0.481 | 0.448 | 0.485 | 0.943 | 0.814 | 0.881 | 0.732 | 0.762
HCC-78 | 0.232 | 0.343 | 0.348 | 0.356 | 0.284 | 0.489 | 0.392 | 0.375 | 0.374 | 0.347 | 0.349 | 0.362 | 0.383 | 0.349 | 0.372 | 0.433 | 0.429 |  | 0.431
NCI-H358 | 0.657 | 0.729 | 0.912 | 0.833 | 0.676 | 0.158 | 0.193 | 0.265 | 0.166 | 0.437 | 0.795 | 0.697 | 0.689 | 0.583 | 0.558 | 0.656 | 0.6 | 0.647 | 0.553
SK-MES-1 | 1.06 | 0.919 | 1.06 | 0.836 | 0.778 | 0.246 | 0.445 | 0.367 | 0.279 | 0.694 | 0.624 | 0.642 | 0.591 | 0.65 | 1.41 | 1.12 | 1.11 | 1.19 | 1.12
NCI-H838 | 1.1 | 1.06 | 1.1 | 0.968 | 1.02 | 0.293 | 0.344 |  | 0.191 | 0.426 | 0.485 | 0.397 | 0.419 | 0.411 | 0.751 | 0.727 | 0.72 | 0.748 | 0.739
HCC-15 | 0.903 | 0.947 | 0.898 | 0.993 | 0.834 | 0.53 | 0.617 | 0.605 | 0.624 | 0.778 | 0.68 | 0.683 | 0.695 | 0.669 | 0.79 | 0.847 | 0.791 | 0.695 | 0.806
EPLC-272H | 0.727 | 1.08 | 0.947 | 0.849 | 0.664 | 0.0652 |  | 0.305 | 0.0573 | 0.257 | 0.279 | 0.295 | 0.291 | 0.216 | 0.386 | 0.545 | 0.527 | 0.407 | 0.508
UMC-11 | 1.08 | 0.829 | 1.02 | 0.934 | 0.518 | 0.424 | 0.455 | 0.447 | 0.414 | 0.554 | 0.469 | 0.566 | 0.467 | 0.447 | 0.388 | 0.415 | 0.423 | 0.391 | 0.264
HARA | 0.72 | 0.945 | 0.81 | 0.773 | 0.666 | 0.26 | 0.299 | 0.294 | 0.124 | 0.318 | 0.656 | 0.558 | 0.439 | 0.226 | 0.575 | 0.514 | 0.511 | 0.573 | 0.521
NCI-H2170 |  | 0.796 | 0.849 | 0.607 | 0.4 | 0.494 | 0.571 | 0.558 | 0.471 |  | 0.825 | 0.875 | 0.575 | 0.34 |  | 0.763 | 0.631 | 0.461 | 0.288
201T | 0.977 | 1.05 | 1.04 | 1.04 | 0.985 | 0.557 | 0.577 | 0.541 | 0.589 | 0.77 | 0.716 | 0.583 | 0.769 | 0.794 | 0.942 | 0.939 | 1.04 | 0.91 | 0.867
NCI-H1944 | 0.654 | 0.808 | 0.946 | 0.786 | 0.624 | 0.244 | 0.228 | 0.227 | 0.238 | 0.428 | 0.378 | 0.474 | 0.377 | 0.382 | 0.557 | 0.561 | 0.541 | 0.474 | 0.517
H3255 |  | 0.686 | 0.599 | 0.755 | 0.146 | 0.329 | 0.404 | 0.294 | 0.283 |  | 0.656 | 0.606 | 0.569 | 0.208 |  | 0.793 | 0.77 | 0.535 | 0.23

From the supplement of paper PMC10307832
